# Values of other authors as cited in patent US9622997B2, “Methods for treating insomnia” (Lynn Health Science Institute, Inc., priority 2012, dated 2017).
# Like-named read-outs stand apart in the source and are kept apart here.
# Experiments:
# [1] = tested on: 3 hour phase-advance study population; settings: 6 mg, cited from earlier work
# [2] = tested on: 2 hour phase-advance study population; settings: cited from earlier work; for TST: ↑ increase compared to placebo; for WASG: ↓ decrease compared to placebo
# [3] = tested on: First-night effect (no PA) study population; settings: cited from earlier work; for TST: ↑ increase compared to placebo; for WASG: ↓ decrease compared to placebo, NS
# [4] = tested on: 2 hour phase-advance study population; settings: ↓ decrease compared to placebo, cited from earlier work
# [5] = tested on: 4 hour phase-advance study population; settings: 10 mg, cited from earlier work
# [6] = tested on: 3 hour phase-advance study population; parameters: TST: unit not given here; settings: cited from earlier work; for TST: ↑ increase compared to placebo; for WASG: ↓ decrease compared to placebo
# [7] = recent study; cited from earlier work
# [8] = tested on: 4 hour phase-advance study population; settings: 10 mg, cited from earlier work; remark: listed apart in the source
compound,measurement,setting,value
CN(C)CCC=C1c2ccccc2COc2ccccc21 [Doxepin],TST,[1]; ↑ increase compared to placebo,↑ 51.1
same,SOL,[1]; ↓ decrease compared to placebo,↓ 15.9
same,WASG,[1]; ↓ decrease compared to placebo,↓ 40.0 min
CC(=O)N(C)c1cccc(-c2ccnc3c(C(=O)c4cccs4)cnn23)c1 [Indiplon],TST,[2]; 10 mg,↑ 11.6
same,TST,[2]; 20 mg,↑ 20.6
same,WASG,[2]; 20 mg,↓ 7.4 min
same,WASG,"[2]; NS, 10 mg",↓ 1.2^NS min
CCC(=O)NCC[C@@H]1CCc2ccc3c(c21)CCO3 [Ramelteon],TST,[3]; 8 mg,↑ 17.1
same,TST,[3]; 16 mg,↑ 13.4
same,WASG,[3]; 8 mg,↓ 5.0^NS min
same,WASG,[3]; 16 mg,↓ 2.5^NS min
CN1C(=O)C(O)N=C(c2ccccc2)c2cc(Cl)ccc21 (stereo not drawn) [Temazepam],WASG,"[4]; NS, temazepam 15 mg",↓ 7.0^NS min
Cc1ccc(-c2nc3ccc(C)cn3c2CC(=O)N(C)C)cc1 [Zolpidem],TST,[5]; ↑ increase compared to placebo,↑ 47.8
same,WASG,[5]; ↓ decrease compared to placebo,↓ 24.7 min
same,WASG,"[4]; zolpidem 10 mg, listed as zolpidem",9.4 min
same,WASG,[4]; zolpidem 10 mg,↓ 9.4 min
same,TST,[6]; 10 mg,↑ 35.7
same,TST,[6]; 15 mg,↑ 37.3
same,TST,"[6]; NS, 5 mg",↑ 35.6^NS
same,TST,"[6]; NS, 20 mg",↑ 12.8^NS
same,WASG,[6]; 20 mg,↓ 32.3 min
same,WASG,"[6]; NS, 5 mg",↓ 22.5^NS min
same,WASG,"[6]; NS, 10 mg",↓ 31.2^NS min
same,WASG,"[6]; NS, 15 mg",↓ 26.9^NS min
same,effect on sleep related GER (acid contact time),[7],markedly prolonging acid contact time
same,TST,[8]; ↑ increase compared to placebo,↑ 52.8
same,WASG,[8]; ↓ decrease compared to placebo,↓ 35.1 min
